Assay results as given in patent publication US20250387494A1, “Prodrugs Based On Tumor Targeting Near Infrared Dye-Drug Conjugates (DDC)” (Lahjavida, Inc., priority 2022, published 2025).

Columns and labels:
[1] = system: SW620 tumor; test: Tumor growth inhibition, intratumor injection; type: in vivo, mice; conditions: for Tumor increase rate: intratumor 15 mg/kg; for Tumor size / tumor growth rate: intratumor injection 15 mg/kg
Protocol: (§1) Thirty-nine (39) female athymic nude mice were injected subcutaneously with 10×10^6 SW620 cells in 0.1 ml PBS with 20% Matrigel on the right flank. When the tumor size reaches within the range of approximately ˜70-200 mm^3, mice were sorted as day 0. Thirty (30) mice were randomized into five (5) groups of six (6) mice per group and dosed singly (I.V.) with the test articles or the vehicle control (This day is Day 1: treatment starts). Administrations of Vehicle (saline), NIR dye (“Dye3” in Table 2), Irinotecan, NIR dye-linker-SN38 (XV), and NIR dye-linker Doxo (XVI) are described in Table 6. Before treatment starts/randomization of mice, the 6 mice whose tumors were getting within the range first were used to determine the maximum tolerated dose (MTD) or dose level of two articles NIR day-linker-SN38 (XV), and NIR dye-linker Doxo (XVI), 3 mice for each.
(§2) Tumor size will be assessed daily, and once noticed palpably, the tumor measurements/body weight started daily up to the randomization day, and before randomization, to get 6 mice as mentioned above for the MTD study, and NIR imaging. After randomization, tumor size and body weight were assessed three times a week (M, W, F) for the duration of the study. Monitoring: a), Record BW on M, W, and F; b). Record signs of distress daily; c). Record tumor size M, W, F; d). In vivo NIR imaging (Group 1, 2, 4, and 5): Ex: 780 nm, Em: 810 nm, on day 1:0.5 hr, 2 hr, 4 hr, 8 hr post day 1 dosing, then 24 hr (day 2), then in vivo imaging, every M, W, and F, until the study ended on day 35.
(§3) The mice were injected with the said compounds either via intravenous tail injection or with intratumor injection for. Two studies were carried out: one was the compounds uptake study by the tumor as judged by the NIR imaging of both the whole mice body (FIGS. 10A, 10B, 11A, and 11B) and of the mice organs (FIGS. 12A, 12B, 13A, 13B, 14A and 14B). The injection method for these study was via intravenous tail injection. The second was the efficacy evaluation of these compounds as judged by their tumor growth inhibition, the injection method for these study was via both intravenous tail injection and intratumor injection.

[2] = system: 2D lung cancer cell line (A549); test: Compound uptake study by NIR mean intensity; type: cell-based; conditions: 5 μM, compared with control dyes Dye 1 and Dye 2, all time points
Protocol: The tumor cells were seeded in a chamber and incubated for 24 h at 37° C. under 5% CO2. After removal of medium, cells were treated with the test materials at 5 μM concentration. When reaching the time points, cells were washed with PBS three times, then fluorescent images were taken under a fluorescent microscope.
(§4) The tumor-targeting ability and therapeutic efficacy of a four additional DDC prodrugs together with the controls of two corresponding NIR dyes, as well as two chemotherapeutic drugs were explored (Table 6) in 2D lung cancer cell line (A549) studies.
(§5) The cell lines were dosed with 5 μM of said compounds. Two studies were carried out: one was the compounds uptake study by the tumor cell line as judged by both the NIR intensity mean (FIG. 6) and by nuclei counts (FIG. 7) per well over time.

[3] = system: SW620 tumor; test: In vivo NIR fluorescent imaging of whole body and organs; conditions: for NIR fluorescent signal in tumor (organ imaging) / tumor accumulation, whole body NIR imaging / NIR signal (organ imaging): 10 s exposure; for tumor accumulation, whole body NIR imaging: intravenous tail injection, 11 days after second dosing at 15 mg/kg
Protocol: as §1, §2
Mice were euthanized on day 35 or mice will be sacrificed when tumor size was more than 2000 mm^3. On termination day, NIR imaging of various organs of 3 mice (if the remaining mice >3) from each group 1, 2, 4 and 5. For each mouse: the tumor, heart, liver, spleen, lungs, kidneys, and brain are imaged at the same time.
as §3

[4] = system: 2D lung cancer cell line (A549); test: Compound uptake/toxicity study by nuclei counts; type: cell-based; conditions: 5 μM, over all the time points
Protocol: Cell viability assay was measured using Cell Titer-Glo luminescent cell ability kit via two parameters: Hoechst nuclei counts via imaging, and 2D Celltiter-glo measuring ATP content from live cells. IC50 values were calculated with a 4-variable curve analysis.
as §4, §5

[5] = system: SW620 tumor; test: Tumor growth inhibition, intravenous tail injection; type: in vivo, mice; design: key to Tumor size: tumor size in mm^3; conditions: for Tumor size: i.v. 10 mg/kg, second dose 15 mg/kg on Day 11; for Tumor increase rate: i.v.; for tumor growth rate: intravenous
Protocol: as §1, §2, §3

[6] = Day 4 vs Day 1 (cell stands under Day 1)
[7] = Day 6 vs Day 4 (cell stands under Day 4)
[8] = Day 8 vs Day 6 (cell stands under Day 6)
[9] = Day 11 vs Day 8 (cell stands under Day 8)
[10] = Day 13 vs Day 11 (cell stands under Day 11)
[11] = Day 15 vs Day 13 (cell stands under Day 13)
[12] = Day 18 vs Day 15 (cell stands under Day 15)
[13] = Day 20 vs Day 18 (cell stands under Day 18)

**Q.** `CCCCN1/C(=C/C=C2\CCCC(/C=C/C3=[N+](CCCCS(=O)(=O)[O-])c4ccccc4C3(C)C)=C2SCCC(=O)NCCC(=O)N2Cc3ccccc3-c3nnn(CCOCCOCCOCCOCCOCCOCCOCCOCCNC(=O)COCC(=O)N[C@H](C(=O)N[C@@H](CCCNC(N)=O)C(=O)Nc4ccc(COC(=O)N[C@@H]5CC(O[C@@H]6C[C@@](O)(C(=O)CO)Cc7c(O)c8c(c(O)c76)C(=O)c6c(OC)cccc6C8=O)O[C@H](C)[C@H]5O)cc4)C(C)C)c3-c3ccccc32)C(C)(C)c2ccccc21` (stereo partly drawn) [Compound XVI, Dye1-PEG8-Val-Cit-PABA-Doxorubicin] was tested. Which Tumor increase rate ([1]; Day 3 vs Day 1 (cell stands under Day 1)) did it give?
**A.** 63%

**Q.** And the Tumor increase rate ([1]; Day 5 vs Day 3 (cell stands under Day 3))?
**A.** 1.1%

**Q.** And the Tumor increase rate ([1]; Day 8 vs Day 5 (cell stands under Day 5))?
**A.** 2.4%

**Q.** What about the Tumor increase rate ([1]; Day 10 vs Day 8 (cell stands under Day 8)) of the same compound?
**A.** 5.5%

**Q.** What about the Tumor size ([1]; Day 1 (Table 10 schedule)) of the same compound?
**A.** 855.4 mm^3

**Q.** And the Tumor size ([1]; Day 3)?
**A.** 1393.5 mm^3

**Q.** What about the Tumor size ([1]; Day 5) of the same compound?
**A.** 1409 mm^3

**Q.** And the Tumor size ([1]; Day 8 (Table 10 schedule))?
**A.** 1443 mm^3

**Q.** And the Tumor size ([1]; Day 10)?
**A.** 1523.7 mm^3

**Q.** What about the tumor growth rate ([1]; as low as) of the same compound?
**A.** 0.4%

**Q.** And the tumor growth rate ([1]; initial)?
**A.** 24%

**Q.** What about the “uptake by NIR Mean Intensity” value [2] of the same compound?
**A.** taken up well

**Q.** And the “NIR fluorescent signal in tumor (organ imaging)” value ([3]; first dose 10 mg/kg, day 17 after intravenous tail injection)?
**A.** strong NIR fluorescent signals

**Q.** What about the “tumor accumulation, whole body NIR imaging” value [3] of the same compound?
**A.** accumulate selectively in the tumor sites

**Q.** And the “NIR fluorescent signal in tumor (organ imaging)” value ([3]; second dose 15 mg/kg, day 7 after intravenous tail injection, versus first dose day 17)?
**A.** more intense

**Q.** `CCCCN1/C(=C/C=C2\CCCC(/C=C/C3=[N+](CCCCS(=O)(=O)[O-])c4ccccc4C3(C)C)=C2SCCC(=O)O)C(C)(C)c2ccccc21` [Dye 1] was tested. Which “NIR signal (organ imaging)” value ([3]; first dose 4.37 mg/kg, day 17 after intravenous tail injection) did it give?
**A.** no NIR signals

**Q.** What about the “NIR signal (organ imaging)” value ([3]; second dose 4.37 mg/kg, day 7 after intravenous tail injection) of the same compound?
**A.** strong NIR signals

**Q.** And the “toxicity by Nuclei Counts” value [4]?
**A.** not toxic

**Q.** `COC(=O)CCSC1=C(/C=C/C2=[N+](CCCCS(=O)(=O)[O-])c3ccccc3C2(C)C)CCC/C1=C\C=C1\N(CCCCCC(=O)O)c2ccccc2C1(C)C` [Dye 2] was tested. Which “toxicity by Nuclei Counts” value [4] did it give?
**A.** not toxic

**Q.** Which results are given for `CCCCN1/C(=C/C=C2\CCCC(/C=C/C3=[N+](CCCCS(=O)(=O)[O-])c4ccccc4C3(C)C)=C2SCCC(=O)NCCC(=O)N2Cc3ccccc3-c3nnn(CCOCCOCCOCCOCCOCCOCCOCCOCCNC(=O)COCC(=O)N[C@H](C(=O)N[C@@H](CCCNC(N)=O)C(=O)Nc4ccc(COC(=O)Oc5ccc6nc7c(c(CC)c6c5)Cn5c-7cc6c(c5=O)COC(=O)[C@]6(O)CC)cc4)C(C)C)c3-c3ccccc32)C(C)(C)c2ccccc21` [Compound XV, Dye1-PEG8-Val-Cit-PABA-SN-38]?
**A.** Tumor size ([5]; Day 1): 163.7; Tumor size ([5]; Day 4): 235.4; Tumor size ([5]; Day 6): 364.9; Tumor size ([5]; Day 8): 794.5; Tumor size ([5]; Day 11): 988.8; Tumor size ([5]; Day 13): 11114.9; Tumor size ([5]; Day 15): 1193.3; Tumor size ([5]; Day 18): 1239.1; Tumor size ([5]; Day 20): 1342.1; Tumor increase rate [5, 6]: 44%; Tumor increase rate [5, 7]: 55%; Tumor increase rate [5, 8]: 118%; Tumor increase rate [5, 9]: 25%; Tumor increase rate [5, 10]: 12.7%; Tumor increase rate [5, 11]: 7%; Tumor increase rate [5, 12]: 3.8%; Tumor increase rate [5, 13]: 8.3%; tumor growth rate ([5]; after the second dose (15 mg/kg, Day 11), low): 4%; tumor growth rate ([5]; before the second dose): 63%; Tumor increase rate [1, 6]: 44%; Tumor increase rate [1, 7]: 55%; Tumor increase rate [1, 8]: 118%; Tumor increase rate [1, 9]: 25%; Tumor increase rate [1, 10]: 12.7%; Tumor increase rate [1, 11]: 7%; Tumor increase rate [1, 12]: 3.8%; Tumor increase rate [1, 13]: 8.3%; Tumor size ([1]; Day 1): 163.7 mm^3; Tumor size ([1]; Day 4): 235.4 mm^3; Tumor size ([1]; Day 6): 364.9 mm^3; Tumor size ([1]; Day 8): 794.5 mm^3; Tumor size ([1]; Day 11): 988.8 mm^3; Tumor size ([1]; Day 13): 11114.9 mm^3; Tumor size ([1]; Day 15): 1193.3 mm^3; Tumor size ([1]; Day 18): 1239.1 mm^3; Tumor size ([1]; Day 20): 1342.1 mm^3; tumor growth rate ([1]; as low as): 1%; tumor growth rate ([1]; initial): 63%; uptake by NIR Mean Intensity [2]: taken up well; tumor accumulation, whole body NIR imaging [3]: accumulate selectively in the tumor sites; organ NIR fluorescent signal ([3]; second dose 15 mg/kg, 24 hr after intravenous tail injection, auto exposure): the tumor showed the strongest NIR fluorescent signal among all the organs
